Experimental data as given in patent publication US20080318227A1, “Intermediates and enzymes of the non-mevalonate isoprenoid pathway” (priority 2001, published 2008).

Key:
IspG (GcpE) = target: T1, IspG (GcpE) (Escherichia coli, UniProt P62620); assay: Screening of IspG (GcpE) enzyme activity, crude cell extract of XL1-pACYClytBgcpE, radio-HPLC; type: biochemical; details: after 10 minutes of incubation at 37° C., NADH, CoCl2, pamidronate
T1 construct: 100 μl crude cell extract of XL1-pACYClytBgcpE; made in house; host or cells: E. coli XL1-Blue harbouring pACYClytBgcpE (crude cell extract)
T1 sequence (P62620 whole entry): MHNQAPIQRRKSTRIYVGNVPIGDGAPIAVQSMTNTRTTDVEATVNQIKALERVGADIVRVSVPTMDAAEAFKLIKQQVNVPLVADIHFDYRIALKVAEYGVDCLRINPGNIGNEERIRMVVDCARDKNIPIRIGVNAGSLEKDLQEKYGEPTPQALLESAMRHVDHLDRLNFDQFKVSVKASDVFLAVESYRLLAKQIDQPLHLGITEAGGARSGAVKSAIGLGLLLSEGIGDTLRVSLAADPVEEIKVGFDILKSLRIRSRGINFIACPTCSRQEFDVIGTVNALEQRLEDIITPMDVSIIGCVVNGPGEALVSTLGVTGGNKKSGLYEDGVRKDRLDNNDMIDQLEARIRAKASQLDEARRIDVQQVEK
Description: 0.2 g cells of XL1-pACYClytBgcpE are suspended in 1 ml 50 mM Tris hydrochloride, pH 7.4 and 2 mM DTT, cooled on ice and sonified 3×7 sec with a Branson Sonifier 250 (Branson SONIC Power Company) set to 80% duty cycle output, control value of 4 output. The suspension is centrifuged at 14000 rpm for 15 minutes. The supernatant is used as crude cell extract in assays described as follows.
The assay mixture contains 100 mM Tris hydrochloride, pH 7.4, 1.2 mM dithiothreitol, 10 mM NaF, 1 mM CoCl2, 2 mM NADH, 20 mM (18 μCi mol^−1) [2-^14C[…]2C-methyl-erythritol 2,4-cyclodiphophate, 0.5 mM pamidronate and 100 μl crude cell extract of XL1-pACYClytBgcpE in a total volume of 150 μl. The mixture is incubated for 10 to 45 min at 37° C. and cooled on ice. 10 μl of 30% (g/v) trichloroacetic acid are added and the mixture is neutralized with 20 μl of 1 M NaOH.
The mixture is centrifuged at 14.000 rpm for 10 minutes. Aliquotes of 130 μl of the supernatant are analyzed by reversed-phase ion-pair HPLC using a column of Multospher 120 RP 18-AQ-5 (4.6×250 mm, CS-Chromatographie Service GmbH, Langerwehe, Germany). […] The effluent is monitored by a continuous-flow radio detector (Beta-RAM, Biostep GmbH, Jahnsdorf, Germany). […]

IspH (LytB) = target: T2, IspH (LytB) (Escherichia coli, UniProt P62623); assay: Screening of IspH (LytB) activity, crude cell extract, radio-HPLC; type: biochemical
T2 construct: 20 μl of crude cell extract of M15-pMALlytB cells; made in house; host or cells: E. coli M15 harbouring pMALlytB (crude cell extract)
T2 sequence (P62623 whole entry): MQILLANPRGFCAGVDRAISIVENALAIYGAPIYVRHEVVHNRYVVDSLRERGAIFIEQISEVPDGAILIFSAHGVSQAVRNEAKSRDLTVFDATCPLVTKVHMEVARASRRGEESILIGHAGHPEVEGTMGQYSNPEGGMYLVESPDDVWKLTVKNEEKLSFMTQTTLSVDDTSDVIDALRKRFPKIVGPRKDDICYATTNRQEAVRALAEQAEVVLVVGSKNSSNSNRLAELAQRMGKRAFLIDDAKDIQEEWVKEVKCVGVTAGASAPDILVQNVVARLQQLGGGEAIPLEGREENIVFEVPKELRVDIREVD

γδ T-cells = assay: γδ T cell stimulation assay (PBMCs, FACS Vδ2 TCR/CD3 double staining); type: cell-based, human; details: for γδ T cell stimulation compared to IPP: at a concentration 200-fold lower than the concentration of the IPP sample; for % γδ T-cells: seven days
Description: PBMCs from healthy donors (donor A and donor B) are isolated from heparinized peripheral blood by density centrifugation over Ficoll-Hypaque (Amersham Pharmacia Biotech, Freiburg, Germany). […] Amounts of recombinant human IL-2 (kindly provided by Eurocetus, Amsterdam, The Netherlands) and substrates are varied from 1 to 10 U and 10 to 0.1 μM, respectively. 20 μM IPP (Echelon, Research Laboratories Inc., Salt Lake City, USA) serves as a positive control whereas medium alone serves as negative control. Incubation is done for seven days at 37° C. in the presence of 7% CO2. The harvested cells are double-stained with fluorescein isothiocyanate (FITC)-conjugated mouse anti-human monoclonal antibody Vδ2 TCR and phycoerythrin (PE)-conjugated monoclonal CD3 antibody. The cells are analyzed using a FACScan supported with Cellquest (Becton Dickinson, Heidelberg, Germany).
The substrates (E)-1-hydroxy-3-methyl-but-2-enyl 4-diphosphate (HMBPP) and 3-formyl-but-2-enyl 1-diphosphate (Aldehyde) were prepared synthetically as described above.

[1] = tested on: Capsicum annuum chromoplasts; assay: Incorporation into the lipid soluble fraction of chromoplasts; type: biochemical; details: [2-14C] label, 8.8 nmol, 30° C. overnight
Description: Chromoplasts are isolated by a slight modification of a method described by Camara (Camara, 1985; Camara, 1993). Pericarp of red pepper (650 g) is homogenized at 4° C. in 600 ml of 50 mM Hepes, pH 8.0, containing 1 mM DTE, 1 mM EDTA and 0.4 M sucrose (buffer A). The suspension is filtered through four layers of nylon cloth (50 μm) and centrifuged (10 min, 4,500 rpm, GSA rotor) to obtain a pellet of crude chromoplasts which is homogenized in 200 ml of buffer A. The suspension is centrifuged (10 min, 4,500 rpm, GSA rotor). The pellet is homogenized and resuspended in 3 ml of 50 mM Hepes, pH 7.6, containing 1 mM DTE. The suspension is filtered through one layer of nylon cloth (50 μm).
Reaction mixtures contain 100 mM Hepes, pH 7.6, 2 mM MnCl2, 10 mM MgCl2, 5 mM NaF, 2 mM NADP^+, 1 mM NADPH, 6 mM ATP, 20 μM FAD and 2 mg of chromoplasts. 8.8 nmol of [2-^14C]2C-methyl-D-erythritol 2,4-cyclodiphosphate, [2-^14C]1-hydroxy-2-methyl-2-(E)-butenyl diphosphate or [2-^14C]isopentenyl diphosphate (specific […] 15.8 μCi/μmol) are added and the mixtures are incubated at 30° C. overnight. The reaction is terminated by methylene chloride extraction. The organic phase is concentrated under a stream of nitrogen. […] The chromatograms are monitored with a phosphor imager (Storm 860, Molecular dynamics, Sunnyvale, Calif., USA). […]

[2] = substrate 0.1 μM, IL-2 1 U, Donor A
[3] = substrate 0.1 μM, IL-2 1 U, Donor B
[4] = substrate 0.1 μM, IL-2 5 U, Donor A
[5] = substrate 0.1 μM, IL-2 5 U, Donor B
[6] = substrate 0.1 μM, IL-2 10 U, Donor A
[7] = substrate 0.1 μM, IL-2 10 U, Donor B
[8] = substrate 1 μM, IL-2 1 U, Donor A
[9] = substrate 1 μM, IL-2 1 U, Donor B
[10] = substrate 1 μM, IL-2 5 U, Donor A
[11] = substrate 1 μM, IL-2 5 U, Donor B
[12] = substrate 1 μM, IL-2 10 U, Donor A
[13] = substrate 1 μM, IL-2 10 U, Donor B
[14] = substrate 10 μM, IL-2 1 U, Donor A
[15] = substrate 10 μM, IL-2 1 U, Donor B
[16] = substrate 10 μM, IL-2 5 U, Donor A
[17] = substrate 10 μM, IL-2 5 U, Donor B
[18] = substrate 10 μM, IL-2 10 U, Donor A
[19] = substrate 10 μM, IL-2 10 U, Donor B

Compound	γδ T cell stimulation compared to IPP (γδ T-cells)	% γδ T-cells (γδ T-cells; [2])	% γδ T-cells (γδ T-cells; [3])	% γδ T-cells (γδ T-cells; [4])	% γδ T-cells (γδ T-cells; [5])	% γδ T-cells (γδ T-cells; [6])	% γδ T-cells (γδ T-cells; [7])	% γδ T-cells (γδ T-cells; [8])	% γδ T-cells (γδ T-cells; [9])	% γδ T-cells (γδ T-cells; [10])	% γδ T-cells (γδ T-cells; [11])	% γδ T-cells (γδ T-cells; [12])	% γδ T-cells (γδ T-cells; [13])	% γδ T-cells (γδ T-cells; [14])	% γδ T-cells (γδ T-cells; [15])	% γδ T-cells (γδ T-cells; [16])	% γδ T-cells (γδ T-cells; [17])	% γδ T-cells (γδ T-cells; [18])	% γδ T-cells (γδ T-cells; [19])	further results
C[C@@]1(CO)OP(=O)(O)OP(=O)(O)OC[C@H]1O [2C-methyl-erythritol 2,4-cyclodiphophate, 2C-methyl-D-erythritol 2,4-cyclodiphosphate]	–	–	–	–	–	–	–	–	–	–	–	–	–	–	–	–	–	–	–	substrate converted into 1-hydroxy-2-methyl-2-(E)-butenyl-4-diphosphate and DMAPP/IPP (IspG (GcpE)): about 13%
C/C(=C\COP(=O)(O)OP(=O)(O)O)CO [HMBPP, (E)-1-hydroxy-3-methyl-but-2-enyl 4-diphosphate]	at least double stimulation compared to IPP	11.78%	32.21%	22.92%	44.69%	34.69%	36.33%	5.57%	35.34%	14.4%	54.12%	19.85%	55.90%	3.3%	31.42%	17.38%	63.48%	24.94%	63.34%	HPLC peak of substrate; conversion into DMAPP and IPP (IspH (LytB); crude cell extract of E. coli M15-pMALlytB cells, 30 min at 37° C., NADH, FAD, pamidronate): completely diminished; conversion into DMAPP and IPP (IspH (LytB); crude cell extract of E. coli wild-type as protein source): No conversion; radioactivity diverted into geranylgeraniol, carotene, phytoene and phytofluene fractions [1]: efficiently diverted
C=C(C)CCO[P@@](=O)(O)OP(=O)(O)O [IPP, isopentenyl diphosphate, reference compound]	–	1.3%	2.15%	1.3%	2.26%	1.01%	2.54%	1.56%	2.22%	1.59%	2.67%	1.71%	2.19%	–	–	–	–	–	–	% γδ T-cells (γδ T-cells; substrate 20 μM, IL-2 1 U, Donor A): 8.19%; % γδ T-cells (γδ T-cells; substrate 20 μM, IL-2 1 U, Donor B): 6.24%; % γδ T-cells (γδ T-cells; substrate 20 μM, IL-2 5 U, Donor A): 14.42%; % γδ T-cells (γδ T-cells; substrate 20 μM, IL-2 5 U, Donor B): 9.32%; % γδ T-cells (γδ T-cells; substrate 20 μM, IL-2 10 U, Donor A): 16.6%; % γδ T-cells (γδ T-cells; substrate 20 μM, IL-2 10 U, Donor B): 11.86%
(E)-3-formyl-but-2-enyl 1-diphosphate [Aldehyde]	at least double stimulation compared to IPP	10%	13.54%	19.77%	18.45%	21.93%	25.82%	15.91%	21.18%	40.13%	30.76%	48.28%	36.69%	12.19%	30.69%	34.69%	30.33%	38.99%	38.85%	–
